Like-named read-outs stand apart in the source and are kept apart here.
Columns and labels:
[1] = tested on: Cabbage Looper (Trichoplusia ni, TRIPNI) (CL); assay: Bioassays on Cabbage Looper (CL), 128-well diet tray assay; format: in vivo; conditions: for mortality at 5 µg/cm2: 168 h, diet tray, second instar larvae, five to seven days, read-out: Percent control (or mortality) CL; for pest or weed control at 50 µg/cm2: Table ABC rating, Cabbage Looper
Experimental: (§1) Example A: Bioassays on Beet Armyworm (Spodoptera exigua, LAPHEG) (“BAW”), Corn Earworm (Helicoverpa zea, Helize) (“CEW”), and Cabbage Looper (Trichoplusia ni, TRIPNI) (“CL”)
(§2) Certain molecules disclosed in this document were tested against BAW, CEW, and CL using procedures described in the following examples. In the reporting of the results, the “BAW, CEW, & CL Rating Table” was used (See Table Section).
Bioassays on CL were conducted using a 128-well diet tray assay. one to five second instar CL larvae were placed in each well (3 mL) of the diet tray that had been previously filled with 1 mL of artificial diet to which 50 μg/cm^2 of the test molecule (dissolved in 50 μL of 90:10 acetone-water mixture) had been applied (to each of eight wells) and then allowed to dry. Trays were covered with a clear self-adhesive cover and held at 25° C., 14:10 light-dark for five to seven days. Percent mortality was recorded for the larvae in each well; activity in the eight wells was then averaged. The results are indicated in the table entitled “Table ABC: Biological Results” (See Table Section).
(§3) Bioassays on BAW and CL were conducted according to the procedures outlined in Example A: Bioassays on Beet Armyworm (“BAW”) and Cabbage Looper (“CL”) using the indicated concentrations.

[2] = tested on: Beet Armyworm (Spodoptera exigua, LAPHEG) (BAW); assay: Bioassays on Beet Armyworm (BAW), 128-well diet tray assay; format: in vivo; conditions: for mortality at 5 µg/cm2: 168 h, diet tray, second instar larvae, five to seven days, read-out: Percent control (or mortality) BAW; for pest or weed control at 50 µg/cm2: Table ABC rating, Beet Armyworm
Experimental: as §1, §2
Bioassays on BAW were conducted using a 128-well diet tray assay. one to five second instar BAW larvae were placed in each well (3 mL) of the diet tray that had been previously filled with 1 mL of artificial diet to which 50 μg/cm^2 of the test molecule (dissolved in 50 μL of 90:10 acetone-water mixture) had been applied (to each of eight wells) and then allowed to dry. Trays were covered with a clear self-adhesive cover and held at 25° C., 14:10 light-dark for five to seven days. Percent mortality was recorded for the larvae in each well; activity in the eight wells was then averaged. The results are indicated in the table entitled “Table ABC: Biological Results” (See Table Section).
as §3

[3] = 5 μg/cm^2 (first BAW/CL column pair)
[4] = 5 μg/cm^2 as printed (second BAW/CL column pair)

Row | SMILES | mortality at 5 µg/cm2 [1, 3] | mortality at 5 µg/cm2 [1, 4] | pest or weed control at 50 µg/cm2 [1] | mortality at 5 µg/cm2 [2, 3] | mortality at 5 µg/cm2 [2, 4] | pest or weed control at 50 µg/cm2 [2]
1 | O=C(NCC(F)(F)F)c1ccc(/C(F)=C/C(c2cc(Cl)c(Cl)c(Cl)c2)C(F)(F)F)cc1C(F)(F)F (centres unmarked) [F1, (Z)-4-(1,4,4,4-tetrafluoro-3-(3,4,5-trichlorophenyl)but-1-en-1-yl)-N-(2,2,2-trifluoroethyl)-2-(trifluoromethyl)benzamide] | 100% | 100% | 50 to 100% | 100% | 100% | 50 to 100%
2 | Cc1cc(C(/C=C(\F)c2ccc(C(=O)NC3CC3)c(C(F)(F)F)c2)C(F)(F)F)cc(C)c1Cl (centres unmarked) [F37, (Z)-4-(3-(4-Chloro-3,5-dimethylphenyl)-1,4,4,4-tetrafluorobut-1-en-1-yl)-N-cyclopropyl-2-(trifluoromethyl)benzamide] |  |  | 50 to 100% |  |  | 50 to 100%
3 | O=C(NC1CSC1)c1ccc(/C(F)=C/C(c2cc(Cl)c(Cl)c(Cl)c2)C(F)(F)F)cc1C(F)(F)F (centres unmarked) [PF2, (Z)-4-(1,4,4,4-Tetrafluoro-3-(3,4,5-trichlorophenyl)but-1-en-1-yl)-N-(thietan-3-yl)-2-(trifluoromethyl)benzamide] |  |  | 50 to 100% |  |  | 50 to 100%
4 | O=C(NC1CCC(F)(F)CC1)c1ccc(/C(F)=C/C(c2cc(Cl)c(Cl)c(Cl)c2)C(F)(F)F)cc1Br (centres unmarked) [F10, (Z)-2-Bromo-N-(4,4-difluorocyclohexyl)-4-(1,4,4,4-tetrafluoro-3-(3,4,5-trichlorophenyl)but-1-en-1-yl)benzamide] |  |  | 50 to 100% |  |  | 50 to 100%
5 | NC(=O)c1ccc(/C(F)=C/C(c2cc(Cl)c(Cl)c(Cl)c2)C(F)(F)F)cc1C(F)(F)F (centres unmarked) [F17, (Z)-4-(1,4,4,4-Tetrafluoro-3-(3,4,5-trichlorophenyl)but-1-en-1-yl)-2-(trifluoromethyl)benzamide] |  |  | 50 to 100% |  |  | 50 to 100%
6 | O=C(NCC(F)(F)F)c1ccc(/C(F)=C/C(c2cc(Cl)c(Cl)c(Cl)c2)C(F)(F)F)cc1 (centres unmarked) [FC1, (Z)-4-(1,4,4,4-tetrafluoro-3-(3,4,5-trichlorophenyl)but-1-en-1-yl)-N-(2,2,2-trifluoroethyl)benzamide] | 100% | 6% |  | 25% | 0% | 
7 | O=C(NC1CCC(F)(F)CC1)c1ccc(/C(F)=C/C(c2cc(Cl)c(Cl)c(Cl)c2)C(F)(F)F)cc1C(F)(F)F (centres unmarked) [F4, (Z)—N-(4,4-Difluorocyclohexyl)-4-(1,4,4,4-tetrafluoro-3-(3,4,5-trichlorophenyl)but-1-en-1-yl)-2-(trifluoromethyl)benzamide] |  |  | 50 to 100% |  |  | 50 to 100%
8 | O=C(c1ccc(/C(F)=C/C(c2cc(Cl)c(Cl)c(Cl)c2)C(F)(F)F)cc1Br)N1CCCC1 (centres unmarked) [F5, (Z)-(2-Bromo-4-(1,4,4,4-tetrafluoro-3-(3,4,5-trichlorophenyl)but-1-en-1-yl)phenyl)(pyrrolidin-1-yl)methanone] |  |  | 50 to 100% |  |  | 50 to 100%
9 | O=C(NC1C[S+]([O-])C1)c1ccc(/C(F)=C/C(c2cc(Cl)c(Cl)c(Cl)c2)C(F)(F)F)cc1C(F)(F)F (centres unmarked) [PF3] |  |  | 50 to 100% |  |  | 50 to 100%
10 | COc1cccc([C@@H](C)NC(=O)c2ccc(/C(F)=C/C(c3cc(Cl)c(Cl)c(Cl)c3)C(F)(F)F)cc2C(F)(F)F)c1 (stereo partly drawn) [F14, N—((R)-1-(3-Methoxyphenyl)ethyl)-4-((Z)-1,4,4,4-tetrafluoro-3-(3,4,5-trichlorophenyl)but-1-en-1-yl)-2-(trifluoromethyl)benzamide] |  |  | 50 to 100% |  |  | 50 to 100%
11 | O=C(NC1CCC(F)(F)CC1)c1ccc(/C(F)=C/C(c2cc(Cl)c(Cl)c(Cl)c2)C(F)(F)F)cc1Cl (centres unmarked) [F9, (Z)-2-Chloro-N-(4,4-difluorocyclohexyl)-4-(1,4,4,4-tetrafluoro-3-(3,4,5-trichlorophenyl)but-1-en-1-yl)benzamide] |  |  | 50 to 100% |  |  | 50 to 100%
12 | O=C(NCc1ccnc(Cl)c1)c1ccc(/C(F)=C/C(c2cc(Cl)c(Cl)c(Cl)c2)C(F)(F)F)cc1C(F)(F)F (centres unmarked) [F47, (Z)—N-((2-Chloropyridin-4-yl)methyl)-4-(1,4,4,4-tetrafluoro-3-(3,4,5-trichlorophenyl)but-1-en-1-yl)-2-(trifluoromethyl)benzamide] |  |  | 50 to 100% |  |  | 50 to 100%
13 | CC(NC(=O)c1ccc(/C(F)=C/C(c2cc(Br)c(Cl)c(Br)c2)C(F)(F)F)cc1C(F)(F)F)C(F)(F)F (centres unmarked) [F36, 4-((Z)-3-(3,5-Dibromo-4-chlorophenyl)-1,4,4,4-tetrafluorobut-1-en-1-yl)-2-(trifluoromethyl)-N-(1,1,1-trifluoropropan-2-yl)benzamide] |  |  | 50 to 100% |  |  | 50 to 100%
14 | CC(NC(=O)c1ccc(/C(F)=C/C(c2cc(Cl)c(Cl)c(Cl)c2)C(F)(F)F)cc1C(F)(F)F)C(F)(F)F (centres unmarked) [F2, (Z)-4-(1,4,4,4-Tetrafluoro-3-(3,4,5-trichlorophenyl)but-1-en-1-yl)-2-(trifluoromethyl)-N-(1,1,1-trifluoropropan-2-yl)benzamide] |  |  | 50 to 100% |  |  | 50 to 100%
15 | O=C(c1ccc(/C(F)=C/C(c2cc(Cl)c(Cl)c(Cl)c2)C(F)(F)F)cc1C(F)(F)F)N1CCCC1 (centres unmarked) [F6, (Z)-Pyrrolidin-1-yl(4-(1,4,4,4-tetrafluoro-3-(3,4,5-trichlorophenyl)but-1-en-1-yl)-2-(trifluoromethyl)phenyl) methanone] |  |  | 50 to 100% |  |  | 50 to 100%
16 | C[C@H](CNCC(F)(F)F)NC(=O)c1ccc(/C(F)=C/C(c2cc(Cl)c(Cl)c(Cl)c2)C(F)(F)F)cc1C(F)(F)F (stereo partly drawn) [F61, 4-((Z)-1,4,4,4-Tetrafluoro-3-(3,4,5-trichlorophenyl)but-1-en-1-yl)-N—((R)-1-((2,2,2-trifluoroethyl)amino)propan-2-yl)-2-(trifluoromethyl)benzamide] |  |  | 50 to 100% |  |  | 50 to 100%
17 | N#CC1(NC(=O)c2ccc(/C(F)=C/C(c3cc(Cl)c(Cl)c(Cl)c3)C(F)(F)F)cc2C(F)(F)F)CC1 (centres unmarked) [F62, (Z)—N-(1-Cyanocyclopropyl)-4-(1,4,4,4-tetrafluoro-3-(3,4,5-trichlorophenyl)but-1-en-1-yl)-2-(trifluoromethyl)benzamide] |  |  | 50 to 100% |  |  | 50 to 100%
18 | O=CNC(=O)c1ccc(/C(F)=C/C(c2cc(Cl)c(Cl)c(Cl)c2)C(F)(F)F)cc1C(F)(F)F (centres unmarked) [F20, (Z)—N-Formyl-4-(1,4,4,4-tetrafluoro-3-(3,4,5-trichlorophenyl)but-1-en-1-yl)-2-(trifluoromethyl)benzamide] |  |  | 50 to 100% |  |  | 50 to 100%
19 | O=C(NC1CC(F)(F)C1)c1ccc(/C(F)=C/C(c2ccc(F)c(Cl)c2)C(F)(F)F)cc1C(F)(F)F (centres unmarked) [F63, (Z)-4-(3-(3-Chloro-4-fluorophenyl)-1,4,4,4-tetrafluorobut-1-en-1-yl)-N-(3,3-difluorocyclobutyl)-2-(trifluoromethyl)benzamide] |  |  | 50 to 100% |  |  | 50 to 100%
